Results from patent US11339405B2, “Kit and method for producing induced embryonic neural progenitors” (priority 2017, dated 2022).
“Also recorded” adds a separate entry of the source.

Tests used:
AD-iENP-derived neurons = test: pTAU (AT8) ICC in AD-iENP-derived neurons, AD drug testing; assay type: cell-based, human; details: AD-iENP-derived neurons (AD1, APOE4/E4), treated for 2 days at 7 days after cortical differentiation; vs DMSO
Protocol: General neural differentiation was examined using differentiation media [Neurobasal, B27 supplement, 1% NEAA, 2 mM glutamine, 1 mM sodium pyruvate (Invitrogen), 300 μg/ml dbcAMP, 50 μM ascorbic acid (Sigma), 20 ng/ml BDNF, 20 ng/ml GDNF, 50 ng/ml NGF (Peprotech)], while specific neuronal differentiation were examined using cortical neuronal differentiation media, dopaminergic neuronal differentiation media, and PNS neuronal differentiation media [cortical neuronal differentiation media: Neurobasal, N2 supplement, B27 supplement (Invitrogen), 100 ng/ml SHH, 125 ng/ml Noggin, 250 ng/ml DKK1, 10 ng/ml BDNF, 10 ng/ml bFGF (R&D), 2 μM XAV939, 100 nM LDN93189, 10 μM SB431542, 200 μM ascorbic acid, 200 μM dbcAMP (Sigma); dopaminergic neuronal differentiation media: DMEM/F12, N2 supplement (Invitrogen), 20 ng/ml BDNF, 200 ng/ml SHH, 100 ng/ml FGF8P (R&D), 200 μM ascorbic acid (Sigma); PNS neuronal differentiation media: DMEM/F12, N2 supplement (Invitrogen), 3 μM CHIR99021, 10 μM SU5402, 10 μM DAPT, 200 μM dbcAMP]. For AD drug testing, AD- and control-iENPs were subjected to cortical differentiation. At 7 days after differentiation, cells were treated with SB415286, 1-Azakenpaullone (Selleckchem), or DMSO (Sigma) for 2 days. […]
The ICC procedure was performed as previously described. […] Signals were recorded using a Zeiss microscope and Spot software. […]

HD-iENPs = test: γH2AX ICC (DNA damage) in HD-iENPs; assay type: cell-based, human; details: vs vehicle (DMSO)
HD-iENP-derived neurons = test: γH2AX ICC (DNA damage) in HD-iENP-derived neurons; assay type: cell-based, human; details: neuronal derivatives of HD-iENPs; vs vehicle (DMSO)
[1] = test system: TTX-sensitive sodium channels; assay type: cell-based, human
[2] = test system: FBs infected with virus encoding the 6 or 7TF combinations

Compound: O=C1Cc2c([nH]c3ccc(Br)cc23)-c2ncccc2N1 [1-Aza, 1-Azakenpaullone]
- pTAU aggregation / pTAU expression (AD-iENP-derived neurons): significantly reduced

Compound: CCNC(=O)[C@H]1O[C@@H](n2cnc3c(N)nc(NCCc4ccc(CCC(=O)O)cc4)nc32)[C@H](O)[C@@H]1O [CGS21680]
- γH2AX expression (DNA damage) (HD-iENPs): significantly decreased; also recorded: decreased DNA damage
- γH2AX expression (DNA damage) (HD-iENP-derived neurons): significantly decreased; also recorded: decreased DNA damage

Compound: O=C1NC(=O)C(c2ccccc2[N+](=O)[O-])=C1Nc1ccc(O)c(Cl)c1 [SB415286]
- pTAU aggregation / pTAU expression (AD-iENP-derived neurons): significantly reduced

Compound: NC1=N[C@H](O)[C@H]2[C@H]3O[C@]4(O)O[C@@H]([C@@H](O)[C@@]2(N1)[C@@H]4O)[C@]3(O)CO [TTX, tetrodotoxin]
- inward Na+ currents [1]: could be blocked
- sodium channel-mediated inward currents [1]: blocked

Compound: RepSox
- efficiency of iENP-6F generation [2]: significantly improved
